The text below walks through data of patent publication US20250186541A1, “DLL3 TARGETING PEPTIDES AND CONSTRUCTS THEREOF” (MARIANA ONCOLOGY INC., priority 2023, published 2025).

Numbered stars: 1 amine (or outer) side, 2 acyl side, 3 side chain; on linkers, the order of the positions; unused ones are H or OH. Bridge positions count the residues as written; N and C are the ends. Square brackets hold non-standard residues; d marks the D form. Peptide text beside a SMILES is read from it. * marks the point of attachment. Ala(piperidin-4-yl) = O=C([C@H](CC1CCN([*:3])CC1)N[*:1])[*:2]; DOTA = O=C(O)CN1CCN(CC(=O)O)CCN(CC(=O)*)CCN(CC(=O)O)CC1; Phe(4-CH2NH2) = NCc1ccc(C[C@H](N)C(=O)O)cc1; 1Nal = N[C@@H](Cc1cccc2ccccc12)C(=O)O; 2Nal = N[C@@H](Cc1ccc2ccccc2c1)C(=O)O; NMetBuAla = CN[C@@H](CC(C)(C)C)C(=O)O; tBuAla = CC(C)(C)C[C@H](N)C(=O)O; αMeD = C[C@](N)(CC(=O)O)C(=O)O; AllylGly = C=CC[C@H](N)C(=O)O; Chg = N[C@H](C(=O)O)C1CCCCC1; αMeP = C[C@@]1(C(=O)O)CCCN1; NMeS = CN[C@@H](CO)C(=O)O

In the assay the target is T1, human DLL3 (Homo sapiens, UniProt Q9NYJ7).
T1 construct: biotin (biotinylated)
T1 sequence (Q9NYJ7 27-618): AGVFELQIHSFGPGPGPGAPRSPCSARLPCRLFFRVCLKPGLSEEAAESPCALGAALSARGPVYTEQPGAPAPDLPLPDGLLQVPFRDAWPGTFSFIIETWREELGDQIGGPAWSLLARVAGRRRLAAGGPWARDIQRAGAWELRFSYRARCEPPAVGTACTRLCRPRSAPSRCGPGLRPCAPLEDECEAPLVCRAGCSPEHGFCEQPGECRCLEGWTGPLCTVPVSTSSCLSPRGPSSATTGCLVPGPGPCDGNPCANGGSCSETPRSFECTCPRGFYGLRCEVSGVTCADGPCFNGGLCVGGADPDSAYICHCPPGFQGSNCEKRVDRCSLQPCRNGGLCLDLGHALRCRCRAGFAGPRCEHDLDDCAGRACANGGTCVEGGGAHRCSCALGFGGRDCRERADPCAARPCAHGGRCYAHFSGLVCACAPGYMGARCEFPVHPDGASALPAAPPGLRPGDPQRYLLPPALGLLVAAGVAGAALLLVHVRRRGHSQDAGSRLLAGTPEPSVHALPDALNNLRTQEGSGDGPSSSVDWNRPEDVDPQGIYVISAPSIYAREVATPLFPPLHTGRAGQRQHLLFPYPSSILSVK
Briefly: Affinity determination by Surface Plasmon Resonance (SPR), Biacore, 1:1 binding model. The note with it: biotinylated human DLL3 on streptavidin chip, 25° C.; NB = nonbinding. In short, it runs like this: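 SPR with biotinylated human DLL3 captured on a streptavidin chip, with a reference surface subtracted. Samples were injected at several concentrations at 100 μL/min in phosphate buffer with 137 mM NaCl, 2.7 mM KCl, 0.05% P20 and 2% DMSO. Kinetic and affinity constants came from a 1:1 binding fit.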
(In general: In SPR one partner is held on a chip, and binding of the other changes the refractive index at the surface.)
As usually defined, the Kd is the free concentration of one partner at which half of the binding sites on the other are occupied at equilibrium, for simple one-to-one binding. High values mean weaker binding, low ones tighter binding. `CC(=O)N[C@H](C(=O)N[C@@H](CO)C(=O)N[C@@H](CC(=O)O)C(=O)N[C@H]1C/C=C/C[C@@H](C(=O)N2CCC[C@@]2(C)C(=O)N[C@@H](Cc2ccccc2)C(=O)N[C@@H](CC(=O)O)C(=O)N[C@H](CCCCNC(=O)CN2CCN(CC(=O)O)CCN(CC(=O)O)CCN(CC(=O)O)CC2)C(N)=O)NC(=O)[C@H](CC(N)=O)NC(=O)[C@H](Cc2ccc3ccccc3c2)NC(=O)[C@H](CC2CCNCC2)NC(=O)[C@H](CC(C)(C)C)N(C)C(=O)[C@H](Cc2cccc3ccccc23)NC1=O)C1CCCCC1` [compound 186, Ac-Chg-S-D-AllyG(4)-(1Nal)-(NMe-Tba)-[3-(4-piperidinyl)-Ala]-(2Nal)-N-AllyG(4)-(aMe-P)-F -D-[D-Lys(DOTA)]-NH2] (Ac-[Chg]SD[AllylGly][1Nal][NMetBuAla][Ala(piperidin-4-yl)][2Nal]N[AllylGly][αMeP]FD[dK](DOTA)-NH2; staple (E) 4-10) registered a Kd of more than 30 nM.

Regarding `CC(=O)N[C@@H](CC1CCNCC1)C(=O)N[C@@H](CO)C(=O)N[C@@H](CC(=O)O)C(=O)N[C@H]1CC=CC[C@@H](C(=O)N2CCC[C@@]2(C)C(=O)N[C@@H](Cc2ccccc2)C(=O)N[C@@H](CC(=O)O)C(N)=O)NC(=O)[C@H](CC(N)=O)NC(=O)[C@H](Cc2ccc3ccccc3c2)NC(=O)[C@H](Cc2ccc(CNC(=O)CN3CCN(CC(=O)O)CCN(CC(=O)O)CCN(CC(=O)O)CC3)cc2)NC(=O)[C@H](CC(C)(C)C)N(C)C(=O)[C@H](Cc2cccc3ccccc23)NC1=O` [compound 187, Ac-[3-(4-piperidinyl)-Ala]-S-D-AllyG(4)-(1Nal)-(NMe-Tba)-[PAF(DOTA)]-(2Nal)-N-AllyG(4)-(aMe-P)-F -D-CONH2] (Ac-[Ala(piperidin-4-yl)]SD[AllylGly][1Nal][NMetBuAla][Phe(4-CH2NH2)](DOTA)[2Nal]N[AllylGly][αMeP]FD-NH2; staple 4-10 (inferred)), the Kd was more than 30 nM.

`CC(=O)N[C@@H](CO)C(=O)N[C@@H](CC(=O)O)C(=O)N[C@H]1C/C=C/C[C@@H](C(=O)N2CCC[C@@]2(C)C(=O)N[C@@H](Cc2ccccc2)C(=O)N[C@@H](CC(=O)O)C(=O)N[C@H](CCCCNC(=O)CN2CCN(CC(=O)O)CCN(CC(=O)O)CCN(CC(=O)O)CC2)C(N)=O)NC(=O)[C@H](CC(N)=O)NC(=O)[C@H](Cc2ccc3ccccc3c2)NC(=O)[C@H](CC2CCNCC2)NC(=O)[C@H](CC(C)(C)C)N(C)C(=O)[C@H](Cc2cccc3ccccc23)NC1=O` [compound 189, Ac-S-D-AllyG(4)-(1Nal)-(NMe-Tba)-[3-(4-piperidinyl)-Ala]-(2Nal)-N-AllyG(4)-(aMe-P)-F -D-[D-Lys(DOTA)]-NH2] (Ac-SD[AllylGly][1Nal][NMetBuAla][Ala(piperidin-4-yl)][2Nal]N[AllylGly][αMeP]FD[dK](DOTA)-NH2; staple (E) 3-9) had a Kd of more than 30 nM.

With `CC(=O)N[C@@H](CC1CCNCC1)C(=O)N(C)[C@@H](CO)C(=O)N[C@@H](CC(=O)O)C(=O)N[C@H]1C/C=C/C[C@@H](C(=O)N2CCC[C@@]2(C)C(=O)N[C@@H](Cc2ccccc2)C(=O)N[C@@H](CC(=O)O)C(N)=O)NC(=O)[C@H](CC(N)=O)NC(=O)[C@H](Cc2ccc3ccccc3c2)NC(=O)[C@H](Cc2ccc(CNC(=O)CN3CCN(CC(=O)O)CCN(CC(=O)O)CCN(CC(=O)O)CC3)cc2)NC(=O)[C@H](CC(C)(C)C)NC(=O)[C@H](Cc2cccc3ccccc23)NC1=O` [compound 190, Ac-[3-(4-piperidinyl)-Ala]-(NMe-Ser)-D-AllyG(4)-(1Nal)-(t-Bu-Ala)-[PAF(DOTA)]-(2Nal)-N-AllyG(4)-(aMe-P)-F-D-CONH2] (Ac-[Ala(piperidin-4-yl)][NMeS]D[AllylGly][1Nal][tBuAla][Phe(4-CH2NH2)](DOTA)[2Nal]N[AllylGly][αMeP]FD-NH2; staple (E) 4-10), the affinity, expressed as Kd, was 1.51 nM.

Turning to `CC(=O)N[C@@H](CC1CCNCC1)C(=O)N[C@@H](CO)C(=O)N[C@@](C)(CC(=O)O)C(=O)N[C@H]1C/C=C/C[C@@H](C(=O)N2CCC[C@@]2(C)C(=O)N[C@@H](Cc2ccccc2)C(=O)N[C@@H](CC(=O)O)C(N)=O)NC(=O)[C@H](CC(N)=O)NC(=O)[C@H](Cc2ccc3ccccc3c2)NC(=O)[C@H](Cc2ccc(CNC(=O)CN3CCN(CC(=O)O)CCN(CC(=O)O)CCN(CC(=O)O)CC3)cc2)NC(=O)[C@H](CC(C)(C)C)NC(=O)[C@H](Cc2cccc3ccccc23)NC1=O` [compound 194, Ac-[3-(4-piperidinyl)-Ala]-S-(aMe-Asp)-AllyG(4)-(1Nal)-(t-Bu-Ala)-[PAF(DOTA)]-(2Nal)-N-AllyG(4)-(aMe-P)-F-D-CONH2] (Ac-[Ala(piperidin-4-yl)]S[αMeD][AllylGly][1Nal][tBuAla][Phe(4-CH2NH2)](DOTA)[2Nal]N[AllylGly][αMeP]FD-NH2; staple (E) 4-10), binding was characterised by a dissociation constant (Kd) of 0.27 nM.

`C[C@@H](NC(=O)CN1CCN(CC(=O)O)CCN(CC(=O)O)CCN(CC(=O)O)CC1)C(=O)N[C@@H](CO)C(=O)N[C@@](C)(CC(=O)O)C(=O)N[C@H]1C/C=C/C[C@@H](C(=O)N2CCC[C@@]2(C)C(=O)N[C@@H](Cc2ccccc2)C(=O)N[C@@H](CC(=O)O)C(N)=O)NC(=O)[C@H](CC(N)=O)NC(=O)[C@H](Cc2ccc3ccccc3c2)NC(=O)[C@H](CC2CCNCC2)NC(=O)[C@H](CC(C)(C)C)NC(=O)[C@H](Cc2cccc3ccccc23)NC1=O` [compound 197, DOTA-(D-Ala)-S-(aMe-Asp)-AllyG(4)-(1Nal)-(t-Bu-Ala)-[3-(4-piperidinyl)-Ala]-(2Nal)-N-AllyG(4)-(aMe-P)-F-D-CONH2] ({DOTA}-[dA]S[αMeD][AllylGly][1Nal][tBuAla][Ala(piperidin-4-yl)][2Nal]N[AllylGly][αMeP]FD-NH2; staple (E) 4-10) registered a Kd of 1.66 nM.

On to `CC(=O)N[C@@H](CC1CCNCC1)C(=O)N[C@@H](CO)C(=O)N[C@@H](CC(=O)O)C(=O)N[C@H]1C/C=C\C[C@@H](C(=O)N2CCC[C@@]2(C)C(=O)N[C@@H](Cc2ccccc2)C(=O)N[C@@H](CC(=O)O)C(N)=O)NC(=O)[C@H](CC(N)=O)NC(=O)[C@H](Cc2ccc3ccccc3c2)NC(=O)[C@H](Cc2ccc(CNC(=O)CN3CCN(CC(=O)O)CCN(CC(=O)O)CCN(CC(=O)O)CC3)cc2)NC(=O)[C@H](CC(C)(C)C)NC(=O)[C@H](Cc2cccc3ccccc23)NC1=O` [compound 198, Ac-(D-Ala)-S-D-AllyG(4)-(1Nal)-(t-Bu-Ala)-[PAF(DOTA)]-(2Nal)-N-AllyG(4)-(aMe-P)-F-D-CONH2] (Ac-[Ala(piperidin-4-yl)]SD[AllylGly][1Nal][tBuAla][Phe(4-CH2NH2)](DOTA)[2Nal]N[AllylGly][αMeP]FD-NH2; staple (Z) 4-10), for which the “SPR KD (nM)” value was “heterogenous binding”.

In turn, `CC(=O)N[C@@H](CC1CCNCC1)C(=O)N[C@@H](CO)C(=O)N[C@@H](CC(=O)O)C(=O)N[C@H]1C/C=C/C[C@@H](C(=O)N2CCC[C@@]2(C)C(=O)N[C@@H](Cc2ccccc2)C(=O)N[C@@H](CC(=O)O)C(N)=O)NC(=O)[C@H](CC(N)=O)NC(=O)[C@H](Cc2ccc3ccccc3c2)NC(=O)[C@H](Cc2ccc(CNC(=O)CN3CCN(CC(=O)O)CCN(CC(=O)O)CCN(CC(=O)O)CC3)cc2)NC(=O)[C@H](CC(C)(C)C)NC(=O)[C@H](Cc2cccc3ccccc23)NC1=O` [compound 199, Ac-(D-Ala)-S-D-AllyG(4)-(1Nal)-(t-Bu-Ala)-[PAF(DOTA)]-(2Nal)-N-AllyG(4)-(aMe-P)-F-D-CONH2] (Ac-[Ala(piperidin-4-yl)]SD[AllylGly][1Nal][tBuAla][Phe(4-CH2NH2)](DOTA)[2Nal]N[AllylGly][αMeP]FD-NH2; staple (E) 4-10) came in with a Kd of 0.21 nM. This lies in the sub-nanomolar range.

Turning to `CC(=O)N[C@@H](CC1CCNCC1)C(=O)N[C@@H](CO)C(=O)N[C@@H](CC(=O)O)C(=O)N[C@H]1C/C=C\C[C@@H](C(=O)N2CCC[C@@]2(C)C(=O)N[C@@H](Cc2ccccc2)C(=O)N[C@@H](CC(=O)O)C(N)=O)NC(=O)[C@H](CC(N)=O)NC(=O)[C@H](Cc2ccc3ccccc3c2)NC(=O)[C@H](Cc2ccc(CNC(=O)CN3CCN(CC(=O)O)CCN(CC(=O)O)CCN(CC(=O)O)CC3)cc2)NC(=O)[C@H](CC(C)(C)C)NC(=O)[C@H](Cc2cccc3ccccc23)NC1=O` [compound 201, Ac-[3-(4-piperidinyl)-Ala]-S-D-AllyG(4)-(1Nal)-(t-Bu-Ala)-[PAF(DOTA)]-(2Nal)-N-AllyG(4)-(aMe-P)-F-D-CONH2] (Ac-[Ala(piperidin-4-yl)]SD[AllylGly][1Nal][tBuAla][Phe(4-CH2NH2)](DOTA)[2Nal]N[AllylGly][αMeP]FD-NH2; staple (Z) 4-10), the affinity, expressed as Kd, was 14.6 nM.

In the case of `CC(=O)N[C@@H](CC1CCNCC1)C(=O)N[C@@H](CO)C(=O)N[C@@H](CC(=O)O)C(=O)N[C@H]1C/C=C/C[C@@H](C(=O)N2CCC[C@@]2(C)C(=O)N[C@@H](Cc2ccccc2)C(=O)N[C@@H](CC(=O)O)C(N)=O)NC(=O)[C@H](CC(N)=O)NC(=O)[C@H](Cc2ccc3ccccc3c2)NC(=O)[C@H](Cc2ccc(CNC(=O)CN3CCN(CC(=O)O)CCN(CC(=O)O)CCN(CC(=O)O)CC3)cc2)NC(=O)[C@H](CC(C)(C)C)NC(=O)[C@H](Cc2cccc3ccccc23)NC1=O` [compound 202, Ac-[3-(4-piperidinyl)-Ala]-S-D-AllyG(4)-(1Nal)-(t-Bu-Ala)-[PAF(DOTA)]-(2Nal)-N-AllyG(4)-(aMe-P)-F-D-CONH2] (Ac-[Ala(piperidin-4-yl)]SD[AllylGly][1Nal][tBuAla][Phe(4-CH2NH2)](DOTA)[2Nal]N[AllylGly][αMeP]FD-NH2; staple (E) 4-10), the Kd amounted to 0.53 nM.
